Experimental data taken from PubChem BioAssay (NCI).
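Test compounds were applied to cells in 96-well plates for 48 hours at 5 doses. GI50 is the concentration that inhibits growth by half. TGI is the concentration that stops growth completely.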

Key:
Assay in all cases: DTP human tumour cell line panel, 48 h
A498 renal = system: A498 renal
EKVX NSCLC = system: EKVX NSCLC
HCT-116 colon = system: HCT-116 colon
HT29 colon = system: HT29 colon
KM12 colon = system: KM12 colon
NCI-H522 lung = system: NCI-H522 lung
RXF 393 renal = system: RXF 393 renal
SN12C renal = system: SN12C renal
SW-620 colon = system: SW-620 colon
TK-10 renal = system: TK-10 renal

Structure (SMILES) | GI50 (A498 renal) | TGI (A498 renal) | GI50 (EKVX NSCLC) | TGI (EKVX NSCLC) | GI50 (HCT-116 colon) | TGI (HCT-116 colon) | GI50 (HT29 colon) | TGI (HT29 colon) | GI50 (KM12 colon) | TGI (KM12 colon) | GI50 (NCI-H522 lung) | TGI (NCI-H522 lung) | GI50 (RXF 393 renal) | TGI (RXF 393 renal) | GI50 (SN12C renal) | TGI (SN12C renal) | GI50 (SW-620 colon) | TGI (SW-620 colon) | GI50 (TK-10 renal) | TGI (TK-10 renal)
COc1ccc(-n2nc(C)c3c(Nc4ccc(NC(=O)Nc5cc(C(F)(F)F)ccc5F)cc4)ncnc32)cc1 | 2.82 µM | 7.18 µM | 2.25 µM | 5.88 µM | 2.81 µM | 10.3 µM | 2310 nM | 5.8 µM | 2.55 µM | 7.32 µM | 1940 nM | 4.95 µM | 1090 nM | 2.82 µM | 2.96 µM | 42.9 µM | 3.45 µM | 22.6 µM | 3.74 µM | > 100 µM
O=C(O)C1(C(=O)O)CCN(S(=O)(=O)c2ccccc2)CC1 | – | > 100 µM | – | > 100 µM | – | > 100 µM | – | > 100 µM | – | > 100 µM | – | > 100 µM | – | > 100 µM | – | > 100 µM | – | > 100 µM | – | > 100 µM
CN1CCN(c2ccc(NC3=C(Cl)C(=O)c4ncccc4C3=O)cc2C(F)(F)F)CC1 | 11.3 µM | 24.2 µM | 2.66 µM | 8.44 µM | 1.69 µM | 3.27 µM | 2340 nM | 5.56 µM | 14.4 µM | 30.1 µM | 1630 nM | 3.39 µM | 1520 nM | 2.91 µM | 1.79 µM | 3.31 µM | 1.35 µM | 3.37 µM | 1.92 µM | 3.45 µM
Cc1cc2cc(Oc3ccnc(Nc4cccc(CS(=O)(=O)NCCN(C)C)c4)n3)ccc2[nH]1 | 1.04 µM | 4.19 µM | 12.2 µM | 26.7 µM | 3.33 µM | 14 µM | 2960 nM | 10.6 µM | 1.29 µM | 13.3 µM | 3690 nM | 14.7 µM | 3480 nM | 15.8 µM | 5.81 µM | 19.2 µM | 7.99 µM | 23.5 µM | 12.5 µM | 25.3 µM
CC(=O)C1C(=O)C(=O)N(c2ccc(Cl)cc2C)C1=O (centres undefined) | – | > 100 µM | – | > 100 µM | – | > 100 µM | – | > 100 µM | – | > 100 µM | – | > 100 µM | – | > 100 µM | – | > 100 µM | – | > 100 µM | – | > 100 µM
Cc1cc(C)c(S(=O)(=O)Oc2ccccc2[N+](=O)[O-])c(C)c1 | 1.21 µM | 12.5 µM | 3.26 µM | > 100 µM | 1.44 µM | > 100 µM | 921 nM | > 100 µM | 0.803 µM | > 100 µM | 1260 nM | 6.56 µM | 2480 nM | 7.83 µM | 14.7 µM | > 100 µM | 0.583 µM | > 100 µM | 4.86 µM | > 100 µM
CCOc1ccc2c(-c3ccnc(Nc4cccc(C(F)(F)F)c4)n3)cnn2n1 | 8.2 µM | > 25 µM | > 17.9 µM | > 25 µM | 6.04 µM | 15.2 µM | 10100 nM | > 25 µM | 5.07 µM | 14 µM | 6330 nM | > 23.1 µM | 14200 nM | > 25 µM | 15.1 µM | > 25 µM | > 25 µM | > 25 µM | 9.72 µM | > 23.8 µM
CCCCC/C=C1\CCC(CN2CCOCC2)C1=O (centres undefined) | – | 33.9 µM | – | 29.7 µM | – | 54.9 µM | – | 35.7 µM | – | 10.7 µM | – | 5.18 µM | – | 12.3 µM | – | 37.6 µM | – | 11.5 µM | – | 18.9 µM
C=C(C)[C@@H]1CC[C@]2(c3ncc(C)o3)CC[C@]3(C)[C@H](CC[C@@H]4[C@@](C)(CCC#N)[C@H](C(=C)C)CC[C@]43C)[C@@H]12 | 14.4 µM | 27.8 µM | 3.13 µM | 12.6 µM | 4.41 µM | 16.4 µM | 3810 nM | 14.8 µM | 3.89 µM | 15.1 µM | 1900 nM | 4.16 µM | 2140 nM | 5.12 µM | 3.16 µM | 12.1 µM | 5.81 µM | 20.8 µM | 14 µM | 28.2 µM
CCCCCCCCCCSS(=O)(=O)c1ccc(C)cc1 | – | 35 µM | – | 27 µM | – | 26.8 µM | – | 23.9 µM | – | 30.4 µM | – | 17.2 µM | – | 32.4 µM | – | 25.1 µM | – | 33.4 µM | – | 37.9 µM
CCOc1ccccc1N=C(NC(=O)CC)SC | > 100 µM | > 100 µM | > 100 µM | > 100 µM | > 10 µM | > 100 µM | > 100000 nM | > 100 µM | > 100 µM | > 100 µM | > 100000 nM | > 100 µM | > 100000 nM | > 100 µM | > 10 µM | > 100 µM | > 100 µM | > 100 µM | – | > 10 µM
